This passage reports IC50 results from US9663526B2, “Aminopyrimidinyl compounds” (Pfizer Inc., priority 2014, dated 2017).

Some results are limits rather than exact numbers.

Broadly, the IC50 is the midpoint of a concentration-inhibition curve.

Assay [1] relates to interferon alpha signalling (TYK2 and JAK1), STAT3 phosphorylation. Description: Human whole blood INFα induced STAT3 phosphorylation assay.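 Note: flow cytometry with anti-pSTAT3 staining, signal as percent-positive × mean fluorescence, baseline from unstimulated wells, 11-point dilution series, IC50 as inhibition of pSTAT3.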 The class given is cell-based. The settings on record: compound 60 minutes at 37° C., IFNα 5000 U/ml for 15 minutes, pSTAT3 in lymphocyte population by flow cytometry, read-out: HWB IFN alpha IC50.
The target of assay [2] is recombinant human kinase domain of JAK1 (Homo sapiens (Human), UniProt P23458). Put plainly: JAK Caliper enzyme assay at 1 mM ATP (JAK1).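 Note: microfluidic mobility-shift readout of synthetic fluorescent peptide phosphorylation, percent product converted from peak height, inhibition relative to DMSO-only wells as uninhibited baseline, room temperature incubation.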 The class given is biochemical. The settings on record: 1 mM ATP; read-out: IC50 (nM) JAK1.
The target in assay [3] is recombinant human kinase domain of JAK2 (Homo sapiens (Human), UniProt O60674). Put plainly: JAK Caliper enzyme assay at 1 mM ATP (JAK2).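 Note: microfluidic mobility-shift read-out of fluorescent synthetic peptide phosphorylation, percent product converted from peak heights, room temperature, DMSO-only wells as uninhibited baseline, inhibition curve fit.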 The format is biochemical.
Assay [4] addresses recombinant human kinase domain of JAK3 (Homo sapiens (Human), UniProt P52333). Put plainly: JAK Caliper enzyme assay at 1 mM ATP (JAK3).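 Note: microfluidic mobility-shift readout of synthetic peptide phosphorylation, percent product converted from peak heights, normalized to DMSO-only wells as uninhibited baseline, room temperature incubation.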 The class given is biochemical. The settings on record: 1 mM ATP; read-out: IC50 (nM) JAK3.
Assay [5] concerns the target recombinant human kinase domain of TYK2 (Homo sapiens (Human), UniProt P29597). Description: JAK Caliper enzyme assay at 1 mM ATP (TYK2).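 Note: microfluidic mobility-shift readout of synthetic peptide phosphorylation by TYK2, tuned to 20–30% conversion at room temperature, reaction stopped with EDTA, DMSO-only wells as uninhibited baseline.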 The format is biochemical. The settings on record: 1 mM ATP; read-out: IC50 (nM) TYK2.

recombinant human kinase domain of JAK1, sequence (P23458 875-1153): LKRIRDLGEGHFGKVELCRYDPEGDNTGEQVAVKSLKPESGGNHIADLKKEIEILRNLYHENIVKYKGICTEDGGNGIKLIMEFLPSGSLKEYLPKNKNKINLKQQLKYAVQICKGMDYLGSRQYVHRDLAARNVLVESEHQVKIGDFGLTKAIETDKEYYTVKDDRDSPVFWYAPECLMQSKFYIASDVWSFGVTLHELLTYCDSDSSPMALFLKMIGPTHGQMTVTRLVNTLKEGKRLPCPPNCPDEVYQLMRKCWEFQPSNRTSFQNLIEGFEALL
recombinant human kinase domain of JAK2, sequence (O60674 849-1124): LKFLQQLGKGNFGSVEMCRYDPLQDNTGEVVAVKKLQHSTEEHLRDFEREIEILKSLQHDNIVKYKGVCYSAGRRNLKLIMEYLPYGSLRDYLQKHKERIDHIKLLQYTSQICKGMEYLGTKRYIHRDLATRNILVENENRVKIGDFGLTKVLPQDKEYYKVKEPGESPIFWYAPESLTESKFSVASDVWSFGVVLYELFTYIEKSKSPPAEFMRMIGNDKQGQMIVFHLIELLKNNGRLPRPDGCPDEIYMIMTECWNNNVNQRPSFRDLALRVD
recombinant human kinase domain of TYK2, sequence (P29597 897-1176): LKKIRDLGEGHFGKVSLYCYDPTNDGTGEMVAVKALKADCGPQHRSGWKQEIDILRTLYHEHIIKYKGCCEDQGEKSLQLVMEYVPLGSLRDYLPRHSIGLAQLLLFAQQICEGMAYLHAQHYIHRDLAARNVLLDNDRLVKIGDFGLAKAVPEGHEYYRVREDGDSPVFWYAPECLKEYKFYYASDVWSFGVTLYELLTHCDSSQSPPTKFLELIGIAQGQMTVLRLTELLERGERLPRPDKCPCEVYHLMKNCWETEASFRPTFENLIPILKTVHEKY
recombinant human kinase domain of JAK3, sequence (P52333 822-1111): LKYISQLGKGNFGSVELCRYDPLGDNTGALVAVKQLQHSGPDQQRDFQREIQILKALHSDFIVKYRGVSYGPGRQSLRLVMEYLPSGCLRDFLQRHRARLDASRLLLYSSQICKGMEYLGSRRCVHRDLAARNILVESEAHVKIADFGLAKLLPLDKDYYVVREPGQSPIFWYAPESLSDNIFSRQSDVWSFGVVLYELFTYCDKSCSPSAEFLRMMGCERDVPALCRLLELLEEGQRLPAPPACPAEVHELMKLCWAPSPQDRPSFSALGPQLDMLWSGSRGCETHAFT

In the case of `Cn1cc(Nc2nccc(N3C[C@H]4CC[C@@H](C3)N4C(=O)[C@@H]3CC3(F)F)n2)cn1` [Example 7, [(1S)-2,2-difluorocyclopropyl][(1R,5S)-3-{2-[(1-methyl-1H-pyrazol-4-yl)amino]pyrimidin-4-yl}-3,8-diazabicyclo[3.2.1]oct-8-yl]methanone], in assay [1], the IC50 amounted to 0.03 µM.

Consider `Cn1cc(Nc2nccc(N3C[C@H]4CC[C@@H](C3)N4C(=O)C3(F)CC3)n2)cn1` [Example 46, (1-fluorocyclopropyl)[(1R,5S)-3-{2-[(1-methyl-1H-pyrazol-4-yl)amino]pyrimidin-4-yl}-3,8-diazabicyclo[3.2.1]oct-8-yl]methanone], for which the 50% inhibitory concentration (IC50) in assay [2] stood at 173 nM; in assay [3] it was 526 nM; in assay [4], 4160 nM; in assay [5] it was 84 nM; in assay [1], 0.209 µM.

Turning to `CCn1cc(Nc2nccc(N3C[C@H]4CC[C@@H](C3)N4C(=O)[C@@H]3C[C@H]3C#N)n2)cn1` [Example 24, (1R,2R)-2-{[(1R,5S)-3-{2-[(1-ethyl-1H-pyrazol-4-yl)amino]pyrimidin-4-yl}-3,8-diazabicyclo[3.2.1]oct-8-yl]carbonyl}cyclopropanecarbonitrile], the half-inhibitory concentration (IC50) turned out to be 13 nM in assay [2], 67 nM in assay [3], 4990 nM in assay [4] and 0.043 µM in assay [1].

For the compound `CCNC(=O)c1ncc(Nc2nccc(N3C[C@H]4CC[C@@H](C3)N4C(=O)C3CC3)n2)cc1C` [Example 14, 5-({4-[(1R,5S)-8-(cyclopropylcarbonyl)-3,8-diazabicyclo[3.2.1]oct-3-yl]pyrimidin-2-yl}amino)-N-ethyl-3-methylpyridine-2-carboxamide], the values for the half-inhibitory concentration (IC50) in assay [4], in assay [5] and in assay [1] were greater than 10000 nM, 79 nM and 0.287 µM, respectively.

As to `O=C([C@@H]1CC1(F)F)N1[C@@H]2CC[C@H]1CN(c1ccnc(Nc3cnc(N4CC[C@@H](O)C4)c(F)c3)n1)C2` [Example 21, [(1S)-2,2-difluorocyclopropyl]{(1R,5S)-3-[2-({5-fluoro-6-[(3R)-3-hydroxypyrrolidin-1-yl]pyridin-3-yl}amino)pyrimidin-4-yl]-3,8-diazabicyclo[3.2.1]oct-8-yl}methanone], the 50% inhibitory concentration (IC50) in assay [1] was 0.731 µM.

For `Cn1cc(Nc2ncc(F)c(N3C[C@@]4(CO)C[C@@]4(NC(=O)[C@@H]4CC4(F)F)C3)n2)cn1` [Example 109, (1S)-2,2-difluoro-N-[(1S,5S)-3-{5-fluoro-2-[(1-methyl-1H-pyrazol-4-yl)amino]pyrimidin-4-yl}-5-(hydroxymethyl)-3-azabicyclo[3.1.0]hex-1-yl]cyclopropanecarboxamide], the IC50 in assay [2] was 211 nM; in assay [4], greater than 10000 nM; in assay [5], 51 nM; in assay [1], 0.507 µM.

`CCNC(=O)N1[C@@H]2CC[C@H]1CN(c1ccnc(Nc3cn[nH]c3)n1)C2` [Example 5, (1R,5S)—N-ethyl-3-[2-(1H-pyrazol-4-ylamino)pyrimidin-4-yl]-3,8-diazabicyclo[3.2.1]octane-8-carboxamide]: the figures for the concentration for half-maximal inhibition (IC50) in assay [3], in assay [4] and in assay [1] were 477 nM, greater than 10000 nM and 0.105 µM, respectively.

For `Cc1cc(Nc2nccc(N3C[C@H]4CC[C@@H](C3)N4C(=O)[C@@H]3CC3(F)F)n2)cnc1C(N)=O` [Example 35, 5-({4-[(1R,5S)-8-{[(1S)-2,2-difluorocyclopropyl]carbonyl}-3,8-diazabicyclo[3.2.1]oct-3-yl]pyrimidin-2-yl}amino)-3-methylpyridine-2-carboxamide], the IC50 in assay [2] is 170 nM; in assay [3], 337 nM; in assay [4], greater than 10000 nM; in assay [1], 0.09 µM.

With `Cn1cc(Nc2nccc(N3C[C@H]4CC[C@@H](C3)N4Cc3ccns3)n2)cn1` [Example 55, N-(1-methyl-1H-pyrazol-4-yl)-4-[(1R,5S)-8-(1,2-thiazol-5-ylmethyl)-3,8-diazabicyclo[3.2.1]oct-3-yl]pyrimidin-2-amine], the IC50 in assay [2] came to 35 nM; in assay [3] it was 221 nM; in assay [4] it was 8620 nM; in assay [1], 0.168 µM.

On to `CNC(=O)c1ncc(Nc2nccc(N3C[C@H]4CC[C@@H](C3)N4C(=O)[C@H]3C[C@@H]3F)n2)cc1C` [Example 44, 5-({4-[(1R,5S)-8-{[(1R,2S)-2-fluorocyclopropyl]carbonyl}-3,8-diazabicyclo[3.2.1]oct-3-yl]pyrimidin-2-yl}amino)-N,3-dimethylpyridine-2-carboxamide], for which the IC50 in assay [2] is 475 nM; in assay [3] it was 854 nM; in assay [4] it was greater than 10000 nM; in assay [1], 0.562 µM.

Regarding `O=C([C@@H]1CC1(F)F)N1[C@@H]2CC[C@H]1CN(c1ccnc(Nc3cnc(OCCO)c(Cl)c3)n1)C2` [Example 23, [(1R,5S)-3-(2-{[5-chloro-6-(2-hydroxyethoxy)pyridin-3-yl]amino}pyrimidin-4-yl)-3,8-diazabicyclo[3.2.1]oct-8-yl][(1S)-2,2-difluorocyclopropyl]methanone], the half-maximal inhibitory concentration (IC50) in assay [1] was determined as 0.428 µM.

As to `CNC(=O)c1ncc(Nc2nccc(N3C[C@H]4CC[C@@H](C3)N4C(=O)[C@@H]3C[C@H]3F)n2)cc1C` [Example 45, 5-({4-[(1R,5S)-8-{[(1S,2R)-2-fluorocyclopropyl]carbonyl}-3,8-diazabicyclo[3.2.1]oct-3-yl]pyrimidin-2-yl}amino)-N,3-dimethylpyridine-2-carboxamide], the IC50 in assay [2] amounted to 46 nM; in assay [3], 100 nM; in assay [4], 7400 nM; in assay [1] it was 0.11 µM.

Regarding `Cn1cc(Nc2nccc(N3C[C@H]4CC[C@@H](C3)N4C3(CC#N)CN(S(C)(=O)=O)C3)n2)cn1` [Example 83, {3-[(1R,5S)-3-{2-[(1-methyl-1H-pyrazol-4-yl)amino]pyrimidin-4-yl}-3,8-diazabicyclo[3.2.1]oct-8-yl]-1-(methylsulfonyl)azetidin-3-yl}acetonitrile], the IC50 in assay [4] worked out at 1240 nM; in assay [1], 0.085 µM.

In the case of `O=C([C@@H]1CC1(F)F)N1[C@@H]2CC[C@H]1CN(c1ccnc(Nc3cn[nH]c3)n1)C2` [Example 51, ((1R,5S)-3-(2-((1H-pyrazol-4-yl)amino)pyrimidin-4-yl)-3,8-diazabicyclo[3.2.1]octan-8-yl)((S)-2,2-difluorocyclopropyl)methanone], the IC50 in assay [2] stood at 13 nM; in assay [3], 97 nM; in assay [4], 8610 nM; in assay [1] it was 0.02 µM.

For `CNC(=O)c1ncc(Nc2nccc(N3C[C@H]4CC[C@@H](C3)N4C(=O)[C@@H]3C[C@H]3C#N)n2)cc1C` [Example 32, 5-({4-[(1R,5S)-8-{[(1R,2R)-2-cyanocyclopropyl]carbonyl}-3,8-diazabicyclo[3.2.1]oct-3-yl]pyrimidin-2-yl}amino)-N,3-dimethylpyridine-2-carboxamide], the concentration for half-maximal inhibition (IC50) in assay [3] was 140 nM; in assay [4] it was greater than 10000 nM; in assay [1], 0.115 µM.

For the compound `Cc1cnc(Nc2ccc(OCCO)nc2)nc1N1C[C@H]2[C@@H](C)[C@@]2(NC(=O)[C@H]2C[C@@H]2C#N)C1` [Example 98, (1S,2S)-2-cyano-N-[(1S,5R,6R)-3-(2-{[6-(2-hydroxyethoxy)pyridin-3-yl]amino}-5-methylpyrimidin-4-yl)-6-methyl-3-azabicyclo[3.1.0]hex-1-yl]cyclopropanecarboxamide], the IC50 in assay [2] amounted to 13 nM; in assay [3], 147 nM; in assay [4], 2600 nM; in assay [1], 0.246 µM.

For `Cc1cc(Nc2nccc(N3C[C@H]4CC[C@@H](C3)N4C(=O)C3CC3)n2)cnc1C(N)=O` [Example 15, 5-({4-[(1R,5S)-8-(cyclopropylcarbonyl)-3,8-diazabicyclo[3.2.1]oct-3-yl]pyrimidin-2-yl}amino)-3-methylpyridine-2-carboxamide], in assay [1], the half-inhibitory concentration (IC50) was determined as 0.534 µM.

As for `C[C@H](CO)c1ccc(Nc2ncc(F)c(N3C[C@H]4[C@@H](C)[C@@]4(NC(=O)C4CC4)C3)n2)cn1` (single isomer, unassigned) [Example 104], the concentration for half-maximal inhibition (IC50) is 1150 nM in assay [2], 3130 nM in assay [3], greater than 10000 nM in assay [4] and 86 nM in assay [5].

As for `CNC(=O)c1ncc(Nc2nccc(N3C[C@H]4CC[C@@H](C3)N4C(=O)NCC#N)n2)cc1C` [Example 90, (1R,5S)—N-(cyanomethyl)-3-(2-{[5-methyl-6-(methylcarbamoyl)pyridin-3-yl]amino}pyrimidin-4-yl)-3,8-diazabicyclo[3.2.1]octane-8-carboxamide], the half-inhibitory concentration (IC50) came out at 17 nM in assay [2], 4170 nM in assay [4] and 0.247 µM in assay [1].

For `Cn1cc(Nc2nccc(N3C[C@H]4CC[C@@H](C3)N4Cc3cnoc3)n2)cn1` [Example 58, N-(1-methyl-1H-pyrazol-4-yl)-4-[(1R,5S)-8-(1,2-oxazol-4-ylmethyl)-3,8-diazabicyclo[3.2.1]oct-3-yl]pyrimidin-2-amine], the IC50 in assay [2] is 267 nM; in assay [4] it was greater than 10000 nM; in assay [5], 73 nM; in assay [1], 0.158 µM.

For the compound `Cn1cc(Nc2nccc(N3C[C@H]4CC[C@@H](C3)N4C(=O)[C@@H]3C[C@@H]3C#N)n2)cn1` [Example 37, (1S,2R)-2-{[(1R,5S)-3-{2-[(1-methyl-1H-pyrazol-4-yl)amino]pyrimidin-4-yl}-3,8-diazabicyclo[3.2.1]oct-8-yl]carbonyl}cyclopropanecarbonitrile], the IC50 in assay [2] stood at 467 nM; in assay [3], 1400 nM; in assay [4] it was 8310 nM; in assay [5] it was 250 nM.
